Assay results reported in publication PMC5472428 (Drug Design, Development and Therapy, 2017).

Key:
[1] = Pharmacokinetic studies in rabbits; assay type: in vivo; conditions: Albino, rabbit, plasma, po, 1 mg/kg
[2] = poor aqueous solubility and good permeability; cited from earlier work

Compound: CC(C)(C)NC(=O)[C@H]1CC[C@H]2[C@@H]3CC[C@H]4NC(=O)C=C[C@]4(C)[C@H]3CC[C@]12C [FIN, (5alpha,17beta)-(1,1-dimethylethyl)-3-oxo-4-azaandrost-1-ene-17-carboxamide]
- AUC [1]: 782 ± 93.7 ng·h/mL
- Cmax [1]: 39.2 ± 9.92 ng/mL
- Tmax [1]: 3.5 ± 0.37 h
- half-life [1]: 661 ± 130 min
- k el [1]: 1.72e-05 s⁻¹
- Biopharmaceutics Classification System (BCS) class [2]: Class II
